Reference: patent publication US20260184663A1, “INDENE COMPOUNDS, PHARMACEUTICAL COMPOSITIONS THEREOF, AND THEIR THERAPEUTIC APPLICATIONS” (NucMito Pharmaceuticals co. Ltd., priority 2022, published 2026)
Like-named read-outs stand apart in the source and are kept apart here.

Tests used:
Assay type in all cases: cell-based
[1] = system: MDA-MB-231 (breast cancer); assay: Antiproliferative activity (CCK-8 cell viability), MDA-MB-231; details: Homo sapiens, 72 h; for inhibition at 3.3 µM: Compound concentration: 3.3 μM; for inhibition at 10 µM: Compound concentration: 10 μM; for inhibition at 30 µM: Compound concentration: 30 μM
In short: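 In this CCK-8 viability assay, MDA-MB-231 cells maintained in Dulbecco's modified Eagle's medium containing 10% fetal bovine serum were placed in 96-well plates (2,000-5,000 cells/well) and treated with compound for 72 h at 37° C. A 4 h incubation with 10 μL CCK-8 followed, plates were read at 450 nm, and viability was expressed against DMSO vehicle wells across replicates.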

HepG2 (liver cancer) = assay: Antiproliferative activity (CCK-8 cell viability), HepG2; details: Homo sapiens, 72 h, read-out: Antiproliferative activity in cancerous cells, HepG2 (inhibition of cell growth); for inhibition at 3.3 µM: Compound concentration: 3.3 μM; for inhibition at 10 µM: Compound concentration: 10 μM
In short: (§1)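 Cells were seeded at 2,000-5,000/well (HeLa in MEM, HepG2 and SW480 in DMEM, A549 in F-12K, all with 10% FBS) and treated with compound at 3.3, 10 or 30 μM for 72 h at 37° C. CCK-8 was added for 4 h, absorbance was read at 450 nm, and viability was expressed relative to DMSO-treated wells.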

SW480 (colon cancer) = assay: Antiproliferative activity (CCK-8 cell viability), SW480; details: Homo sapiens, 72 h; for inhibition at 3.3 µM: Compound concentration: 3.3 μM; for inhibition at 10 µM: Compound concentration: 10 μM; for inhibition at 30 µM: Compound concentration: 30 μM
In short: as §1

[2] = system: B16F10 (malignant melanoma); assay: Antiproliferative activity (CCK-8 cell viability), B16F10; details: Mus musculus, 72 h, read-out: Antiproliferative activity in cancerous cells, B16F10 (inhibition of cell growth); for inhibition at 3.3 µM: B16-F10, Compound concentration: 3.3 μM; for inhibition at 10 µM: B16-F10, Compound concentration: 10 μM
In short: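 Attached B16F10 cells in 96-well plates were incubated with compound at 37° C for 72 h, followed by 10 μL CCK-8 reagent per well and a further 4 h incubation. A multi-well plate reader measured absorbance at 450 nm. Percent viability across replicates was calculated against DMSO vehicle-treated cells.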

[3] = system: A431 (epidermoid carcinoma); assay: Antiproliferative activity (CCK-8 cell viability), A431; details: Homo sapiens, 72 h, read-out: Antiproliferative activity in cancerous cells, A431 (inhibition of cell growth); for inhibition at 3.3 µM: A-431, Compound concentration: 3.3 μM; for inhibition at 10 µM: A-431, Compound concentration: 10 μM
In short: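 Cell viability of compound-treated A431 cells was measured with a Cell Counting Kit-8. Each well received 10 μL of CCK-8 after 72 h of compound exposure, followed by 4 h incubation at 37° C. and a 450 nm plate-reader measurement. Percent viability was calculated relative to DMSO controls across replicates.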

[4] = system: A549 (lung adenocarcinoma); assay: Antiproliferative activity (CCK-8 cell viability), A549; details: Homo sapiens, 72 h; for inhibition at 3.3 µM: Compound concentration: 3.3 μM; for inhibition at 10 µM: Compound concentration: 10 μM; for inhibition at 30 µM: Compound concentration: 30 μM
In short: as §1

HeLa (cervical cancer) = assay: Antiproliferative activity (CCK-8 cell viability), HeLa; details: Homo sapiens, 72 h, read-out: Antiproliferative activity in cancerous cells, HELA (inhibition of cell growth); for inhibition at 3.3 µM: Compound concentration: 3.3 μM; for inhibition at 10 µM: Compound concentration: 10 μM
In short: as §1

[5] = read-out: Antiproliferative activity in cancerous cells, MDA-MB-231 (inhibition of cell growth)
[6] = read-out: Antiproliferative activity in cancerous cells, SW480 (inhibition of cell growth)
[7] = read-out: Antiproliferative activity in cancerous cells, A549 (inhibition of cell growth)

| Structure (SMILES) | inhibition at 3.3 µM [1, 5] | inhibition at 10 µM [1, 5] | inhibition at 3.3 µM (HepG2 (liver cancer)) | inhibition at 10 µM (HepG2 (liver cancer)) | inhibition at 3.3 µM (SW480 (colon cancer); [6]) | inhibition at 10 µM (SW480 (colon cancer); [6]) | inhibition at 3.3 µM [2] | inhibition at 10 µM [2] | inhibition at 3.3 µM [3] | inhibition at 10 µM [3] | inhibition at 3.3 µM [4, 7] | inhibition at 10 µM [4, 7] | inhibition at 3.3 µM (HeLa (cervical cancer)) | inhibition at 10 µM (HeLa (cervical cancer)) | further results |
| --- | --- | --- | --- | --- | --- | --- | --- | --- | --- | --- | --- | --- | --- | --- | --- |
| CC1=C(CC(=O)O)c2cc(F)ccc2/C1=C\c1ccc(CCCc2ccccc2)cc1 [B114, (Z)-2-(5-Fluoro-2-methyl-1-(4-(3-phenylpropyl)benzylidene)-1H-inden-3-yl)acetic acid] | < 30% | < 30% | ≥ 50% | ≥ 50% | ≥ 50% | ≥ 50% | < 30% | < 30% | 30 to 50% | ≥ 50% | 30 to 50% | ≥ 50% | ≥ 50% | ≥ 50% | – |
| CC1=C(CC(=O)O)c2cc(F)ccc2/C1=C\c1ccc(Oc2ccc(Cl)cc2)cc1Oc1ccc(Cl)cc1 [C79, (Z)-2-(1-(2,4-Bis(4-chlorophenoxy)benzylidene)-5-fluoro-2-methyl-1H-inden-3-yl)acetic acid] | ≥ 50% | ≥ 50% | ≥ 50% | ≥ 50% | ≥ 50% | ≥ 50% | ≥ 50% | ≥ 50% | ≥ 50% | ≥ 50% | ≥ 50% | ≥ 50% | ≥ 50% | ≥ 50% | – |
| CCOCc1ccc(/C=C2/C(C)=C(CC(=O)O)c3cc(F)ccc32)cc1 [D10, (Z)-2-(1-(4-(Ethoxymethyl)benzylidene)-5-fluoro-2-methyl-1H-inden-3-yl)acetic acid] | < 30% | < 30% | < 30% | < 30% | 30 to 50% | 30 to 50% | 30 to 50% | 30 to 50% | ≥ 50% | ≥ 50% | 30 to 50% | 30 to 50% | 30 to 50% | ≥ 50% | inhibition at 30 µM [1, 5]: 30 to 50%; inhibition at 30 µM (HepG2 (liver cancer); Compound concentration: 30 μM): 30 to 50%; inhibition at 30 µM (SW480 (colon cancer); [6]): 30 to 50%; inhibition at 30 µM ([2]; B16-F10, Compound concentration: 30 μM): 30 to 50%; inhibition at 30 µM ([3]; A-431, Compound concentration: 30 μM): ≥ 50%; inhibition at 30 µM [4, 7]: 30 to 50%; inhibition at 30 µM (HeLa (cervical cancer); Compound concentration: 30 μM): ≥ 50% |
| CC1=C(CC(=O)O)c2cc(Cl)ccc2/C1=C\c1ccc(Oc2ccc(F)cc2)cc1 [C63, (Z)-2-(5-Chloro-1-(4-(4-fluorophenoxy)benzylidene)-2-methyl-1H-inden-3-yl)acetic acid] | < 30% | < 30% | 30 to 50% | ≥ 50% | < 30% | < 30% | 30 to 50% | 30 to 50% | ≥ 50% | ≥ 50% | 30 to 50% | 30 to 50% | 30 to 50% | ≥ 50% | inhibition at 30 µM ([1]; read-out: Antiproliferative activity in cancerous cells, MDA-MB-231): 30 to 50%; inhibition at 30 µM (SW480 (colon cancer); read-out: Antiproliferative activity in cancerous cells, SW480): < 30%; inhibition at 30 µM ([4]; read-out: Antiproliferative activity in cancerous cells, A549): 30 to 50% |
| COc1cc(COCc2ccc(/C=C3/C(C)=C(CC(=O)O)c4cc(F)ccc43)cc2)ccc1F [B113, (Z)-2-(5-Fluoro-1-(4-(((4-fluoro-3-methoxybenzyl)oxy)methyl)benzylidene)-2-methyl-1H-inden-3-yl)acetic acid] | 30 to 50% | ≥ 50% | < 30% | < 30% | < 30% | ≥ 50% | < 30% | < 30% | ≥ 50% | ≥ 50% | 30 to 50% | ≥ 50% | < 30% | ≥ 50% | – |
| CC1=C(CC(=O)O)c2cc(F)ccc2/C1=C\c1ccc(OCCc2ccc(Cl)cc2)cc1 [B35, (Z)-2-(1-(4-(4-Chlorophenethoxy)benzylidene)-5-fluoro-2-methyl-1H-inden-3-yl)acetic acid] | ≥ 50% | ≥ 50% | 30 to 50% | ≥ 50% | < 30% | ≥ 50% | ≥ 50% | ≥ 50% | ≥ 50% | ≥ 50% | ≥ 50% | ≥ 50% | < 30% | ≥ 50% | – |
| CC1=C(CC(=O)O)c2cc(F)ccc2/C1=C\c1ccc(COc2ccc(F)cc2)cc1Br [B74, (Z)-2-(1-(2-Bromo-4-((4-fluorophenoxy)methyl)benzylidene)-5-fluoro-2-methyl-1H-inden-3-yl)acetic acid] | < 30% | 30 to 50% | ≥ 50% | ≥ 50% | < 30% | < 30% | 30 to 50% | ≥ 50% | < 30% | 30 to 50% | 30 to 50% | 30 to 50% | < 30% | ≥ 50% | – |
| CC1=C(CC(=O)O)c2cc(Br)ccc2/C1=C\c1ccc(Oc2ccc(Cl)cc2)cc1 [C77, (Z)-2-(5-Bromo-1-(4-(4-chlorophenoxy)benzylidene)-2-methyl-1H-inden-3-yl)acetic acid] | ≥ 50% | ≥ 50% | 30 to 50% | ≥ 50% | < 30% | 30 to 50% | ≥ 50% | ≥ 50% | < 30% | < 30% | < 30% | ≥ 50% | ≥ 50% | ≥ 50% | – |
| CC1=C(CC(=O)O)c2cc(F)ccc2/C1=C\c1ccc(Oc2ccc(F)cc2)cc1Cl [C50, (Z)-2-(1-(2-Chloro-4-(4-fluorophenoxy)benzylidene)-5-fluoro-2-methyl-1H-inden-3-yl)acetic acid] | < 30% | ≥ 50% | < 30% | ≥ 50% | 30 to 50% | ≥ 50% | < 30% | ≥ 50% | ≥ 50% | ≥ 50% | < 30% | ≥ 50% | 30 to 50% | ≥ 50% | – |
